This test has as its target Sphingosine 1-phosphate receptor 1 (Homo sapiens, UniProt P21453). Nature of the test: hS1P1 ERK Phosphorylation (S1P1 pERK). The method, then: hS1P1/CHO cells were plated into BD Amine 384-well plates the day before the assay. On the day of the assay, growth medium was removed and replaced with serum-free medium (Ham's F-12 Invitrogen) and incubated for 2 hours. Test compounds pre-diluted in HBSS (Gibco)/20 mM HEPES (Gibco) were transferred to the cell plates and incubated for 7 minutes at 37° C. Cells were lysed in lysis buffer (Perkin Elmer) and phospho-ERK was measured using the SureFire pERK kit (Perkin Elmer) as described by the manufacturer. Data was plotted as percentage activation of the test compound relative to the efficacy of 10 μM S1P.

Sequence of Sphingosine 1-phosphate receptor 1 (P21453 whole entry): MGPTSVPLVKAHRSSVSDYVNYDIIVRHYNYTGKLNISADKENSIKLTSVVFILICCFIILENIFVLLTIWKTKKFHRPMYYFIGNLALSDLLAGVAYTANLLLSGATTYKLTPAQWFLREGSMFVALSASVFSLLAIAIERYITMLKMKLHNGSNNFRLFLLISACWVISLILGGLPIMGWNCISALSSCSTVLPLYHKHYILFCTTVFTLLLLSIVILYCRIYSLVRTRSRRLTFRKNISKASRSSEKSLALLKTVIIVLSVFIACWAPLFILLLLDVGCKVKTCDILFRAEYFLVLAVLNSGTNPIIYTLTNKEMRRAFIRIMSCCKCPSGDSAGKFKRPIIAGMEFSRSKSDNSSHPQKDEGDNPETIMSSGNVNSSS

Turning to `CCSCC[C@H]1CCc2cc([C@H]3CC[C@](N)(COP(=O)(O)O)C3)ccc2C1` [US10166249, Example 532], the 50% effective concentration (EC50) (commonly the concentration at which the effect is half-maximal) is under 10 nM.

Source of the values: BindingDB's records for patent US10166249 (Bristol-Myers Squibb, 2019).
